Laboratory results published in ChEMBL document CHEMBL1139273, “Aryl aminopyrazole benzamides as oral non-steroidal selective glucocorticoid receptor agonists” (Bioorg Med Chem Lett, 2009).

Tests used:
A549 = assay: Inhibition of TNF-induced NFkappaB activation in human A549 cells after 15 hrs relative to Dexamethasone; assay type: cell-based; design: scale not given: the % may be the effect or the level left
Glucocorticoid receptor [1] = molecular target: T1, Glucocorticoid receptor (Homo sapiens, UniProt P04150)
T1 sequence (P04150 whole entry): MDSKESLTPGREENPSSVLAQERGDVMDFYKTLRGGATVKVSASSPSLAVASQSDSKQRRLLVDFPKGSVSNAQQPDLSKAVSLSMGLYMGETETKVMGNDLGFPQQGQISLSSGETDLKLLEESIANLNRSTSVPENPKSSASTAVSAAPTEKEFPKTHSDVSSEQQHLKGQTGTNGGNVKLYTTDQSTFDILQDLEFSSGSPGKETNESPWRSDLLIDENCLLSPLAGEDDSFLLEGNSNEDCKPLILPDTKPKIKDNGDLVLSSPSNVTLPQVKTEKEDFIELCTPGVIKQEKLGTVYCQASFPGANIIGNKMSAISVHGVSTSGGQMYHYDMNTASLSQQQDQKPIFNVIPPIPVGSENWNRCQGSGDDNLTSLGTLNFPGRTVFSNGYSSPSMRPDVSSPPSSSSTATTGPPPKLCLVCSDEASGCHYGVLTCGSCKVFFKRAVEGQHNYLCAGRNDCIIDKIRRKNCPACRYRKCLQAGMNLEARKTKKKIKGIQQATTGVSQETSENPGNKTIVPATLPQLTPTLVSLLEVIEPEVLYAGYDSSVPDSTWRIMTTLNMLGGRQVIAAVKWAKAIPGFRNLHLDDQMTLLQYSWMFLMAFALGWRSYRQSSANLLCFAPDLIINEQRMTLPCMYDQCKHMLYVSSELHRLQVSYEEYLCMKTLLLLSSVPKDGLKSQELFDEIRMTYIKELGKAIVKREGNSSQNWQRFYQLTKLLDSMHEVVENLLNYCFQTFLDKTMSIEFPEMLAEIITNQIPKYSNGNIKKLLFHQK
Description: Displacement of fluorescent labelled Dexamethasone from glucocorticoid receptor

Glucocorticoid receptor [2] = molecular target: T1, Glucocorticoid receptor; remark: listed apart in the source
Description: Agonist activity at human glucocorticoid receptor in human A549 cells assessed as transcriptional activity by MMTV luciferase reporter gene assay

[3] = Inhibition of TNF-induced NF-kappaB activation in human A549 cells after 15 hrs; conditions: for IC50: Homo sapiens, A549, 15 h, read-out: pIC50 (converted); for pIC50: a549
Cytochrome P450 2D6 = Cytochrome P450 2D6 (Homo sapiens, UniProt P10635); assay: Inhibition of CYP2D6; assay type: ADME
Cytochrome P450 2D6, sequence (P10635 whole entry): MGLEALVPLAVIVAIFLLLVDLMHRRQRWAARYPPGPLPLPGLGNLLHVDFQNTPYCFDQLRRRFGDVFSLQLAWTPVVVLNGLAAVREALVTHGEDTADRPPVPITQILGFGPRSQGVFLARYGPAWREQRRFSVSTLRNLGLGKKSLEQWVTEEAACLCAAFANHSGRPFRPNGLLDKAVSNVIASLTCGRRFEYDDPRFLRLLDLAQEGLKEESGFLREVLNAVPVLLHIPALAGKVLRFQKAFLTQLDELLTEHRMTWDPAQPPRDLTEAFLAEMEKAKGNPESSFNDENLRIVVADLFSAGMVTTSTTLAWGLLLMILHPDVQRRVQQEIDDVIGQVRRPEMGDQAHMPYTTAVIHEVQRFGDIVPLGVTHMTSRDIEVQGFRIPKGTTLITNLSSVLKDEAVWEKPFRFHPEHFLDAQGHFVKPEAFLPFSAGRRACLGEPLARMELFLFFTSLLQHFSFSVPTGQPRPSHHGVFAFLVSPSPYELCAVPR

Cytochrome P450 2C9 = Cytochrome P450 2C9 (Homo sapiens, UniProt P11712); assay: Inhibition of CYP2C9; assay type: ADME
Cytochrome P450 2C9, sequence (P11712 whole entry): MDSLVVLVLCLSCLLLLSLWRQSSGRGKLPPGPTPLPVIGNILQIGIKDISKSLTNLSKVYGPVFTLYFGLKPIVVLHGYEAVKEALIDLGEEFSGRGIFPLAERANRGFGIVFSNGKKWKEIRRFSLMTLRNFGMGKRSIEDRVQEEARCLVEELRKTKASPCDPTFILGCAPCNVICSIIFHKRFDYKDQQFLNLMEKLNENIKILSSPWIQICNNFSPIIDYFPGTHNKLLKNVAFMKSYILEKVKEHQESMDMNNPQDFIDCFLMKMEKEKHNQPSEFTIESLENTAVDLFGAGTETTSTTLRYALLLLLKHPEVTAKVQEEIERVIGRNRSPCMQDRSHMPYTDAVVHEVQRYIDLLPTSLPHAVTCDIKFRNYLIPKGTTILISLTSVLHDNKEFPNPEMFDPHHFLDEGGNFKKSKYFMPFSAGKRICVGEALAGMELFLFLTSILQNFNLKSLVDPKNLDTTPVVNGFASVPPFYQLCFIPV

Cytochrome P450 1A2 = molecular target: T2, Cytochrome P450 1A2 (Homo sapiens, UniProt P05177); assay: Inhibition of CYP1A2; assay type: ADME
T2 sequence (P05177 whole entry): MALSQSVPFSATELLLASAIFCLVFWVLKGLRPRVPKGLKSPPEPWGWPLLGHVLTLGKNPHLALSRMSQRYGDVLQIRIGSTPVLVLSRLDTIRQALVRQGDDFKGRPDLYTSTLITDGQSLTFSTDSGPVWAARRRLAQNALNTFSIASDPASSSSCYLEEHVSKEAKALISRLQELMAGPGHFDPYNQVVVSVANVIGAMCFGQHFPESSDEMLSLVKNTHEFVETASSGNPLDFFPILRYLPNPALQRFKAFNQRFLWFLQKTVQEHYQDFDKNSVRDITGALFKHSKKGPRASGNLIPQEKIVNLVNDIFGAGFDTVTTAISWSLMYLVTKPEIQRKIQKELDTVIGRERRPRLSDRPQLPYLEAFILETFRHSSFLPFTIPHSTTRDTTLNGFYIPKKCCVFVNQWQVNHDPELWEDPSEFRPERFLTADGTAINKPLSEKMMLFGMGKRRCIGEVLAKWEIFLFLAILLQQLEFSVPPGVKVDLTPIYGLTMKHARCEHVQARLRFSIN

Cytochrome P450 3A4 = Cytochrome P450 3A4 (Homo sapiens, UniProt P08684)
Cytochrome P450 3A4, sequence (P08684 whole entry): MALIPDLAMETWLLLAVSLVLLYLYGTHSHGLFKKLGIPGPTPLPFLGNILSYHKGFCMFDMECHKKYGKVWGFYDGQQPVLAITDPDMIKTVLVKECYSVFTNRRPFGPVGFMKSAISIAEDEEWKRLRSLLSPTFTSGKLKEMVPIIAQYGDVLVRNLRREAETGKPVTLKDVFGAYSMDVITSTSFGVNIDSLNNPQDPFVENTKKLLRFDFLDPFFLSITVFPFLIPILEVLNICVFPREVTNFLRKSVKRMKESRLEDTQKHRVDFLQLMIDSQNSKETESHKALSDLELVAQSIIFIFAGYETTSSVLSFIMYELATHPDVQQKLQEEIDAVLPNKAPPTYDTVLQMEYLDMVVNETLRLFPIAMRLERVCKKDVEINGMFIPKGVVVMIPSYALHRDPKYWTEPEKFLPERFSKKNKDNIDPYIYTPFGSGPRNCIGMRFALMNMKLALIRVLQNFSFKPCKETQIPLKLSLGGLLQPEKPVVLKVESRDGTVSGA

Cytochrome P450 2C19 = Cytochrome P450 2C19 (Homo sapiens, UniProt P33261); assay: Inhibition of CYP2C19; assay type: ADME
Cytochrome P450 2C19, sequence (P33261 whole entry): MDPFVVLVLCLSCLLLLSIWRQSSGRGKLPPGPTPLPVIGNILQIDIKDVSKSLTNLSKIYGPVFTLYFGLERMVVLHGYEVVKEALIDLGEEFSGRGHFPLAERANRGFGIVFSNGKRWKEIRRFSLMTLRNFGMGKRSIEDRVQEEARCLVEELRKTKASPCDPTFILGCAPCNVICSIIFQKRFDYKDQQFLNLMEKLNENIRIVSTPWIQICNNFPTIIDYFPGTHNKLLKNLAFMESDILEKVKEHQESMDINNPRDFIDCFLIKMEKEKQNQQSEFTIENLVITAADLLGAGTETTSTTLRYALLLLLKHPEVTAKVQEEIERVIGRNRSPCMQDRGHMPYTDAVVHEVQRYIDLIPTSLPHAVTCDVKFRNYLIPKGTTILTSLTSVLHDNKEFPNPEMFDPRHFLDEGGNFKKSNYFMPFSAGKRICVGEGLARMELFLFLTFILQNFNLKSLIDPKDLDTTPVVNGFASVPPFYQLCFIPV

[4] = Volume of distribution at steady state in Sprague-Dawley rat at 1 mg/kg, iv and 1 mg/kg, po; assay type: ADME, organism-based; conditions: in vivo, read-out: Vdss
Albumin = Albumin (Homo sapiens, UniProt P02768); assay: Binding affinity to human serum albumin by fast gradient HPLC; assay type: ADME; conditions: isolated protein
Albumin, sequence (P02768 whole entry): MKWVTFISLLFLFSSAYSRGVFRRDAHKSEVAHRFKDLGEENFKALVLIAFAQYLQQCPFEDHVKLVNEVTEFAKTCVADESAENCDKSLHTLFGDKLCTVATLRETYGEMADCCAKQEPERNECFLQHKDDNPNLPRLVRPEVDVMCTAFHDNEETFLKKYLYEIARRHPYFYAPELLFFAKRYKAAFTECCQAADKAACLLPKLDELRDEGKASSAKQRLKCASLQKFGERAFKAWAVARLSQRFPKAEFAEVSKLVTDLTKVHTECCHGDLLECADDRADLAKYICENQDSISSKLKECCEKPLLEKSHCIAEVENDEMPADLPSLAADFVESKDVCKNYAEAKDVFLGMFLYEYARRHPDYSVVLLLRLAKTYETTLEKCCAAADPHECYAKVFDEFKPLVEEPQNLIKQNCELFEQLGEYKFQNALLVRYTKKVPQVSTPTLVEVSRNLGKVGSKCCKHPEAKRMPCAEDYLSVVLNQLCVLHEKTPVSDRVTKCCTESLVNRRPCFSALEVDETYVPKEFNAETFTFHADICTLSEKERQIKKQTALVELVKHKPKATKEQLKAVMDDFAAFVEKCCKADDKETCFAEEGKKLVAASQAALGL

[5] = Oral bioavailability in Sprague-Dawley rat at 1 mg/kg; assay type: ADME, organism-based; conditions: in vivo
[6] = Protein binding in human plasma by ultrafiltration; assay type: ADME, cell-free; conditions: read-out: PPB (converted)
[7] = Clearance in Sprague-Dawley rat at 1 mg/kg, iv and 1 mg/kg, po; assay type: ADME, organism-based; conditions: in vivo

IC50 (Glucocorticoid receptor [1])	EC50 (Glucocorticoid receptor [2])	IC50 [3]	Structure (SMILES)	Activity (A549)	also measured
–	–	–	CCN(CC(O)(CNC(=O)c1cnn(-c2ccc(F)cc2)c1N)C(F)(F)F)C(=O)c1ccccc1 (racemic) [listing 1 of 2 here]	88%	–
–	–	–	CCN(CC(O)(CNC(=O)c1cnn(-c2ccc(F)cc2)c1N)C(F)(F)F)C(=O)c1ccccc1Cl (stereo in doubt; 13d) [listing 1 of 2 here]	95%	–
20 nM	316 nM	100 nM	CCN(CC(O)(CNC(=O)c1cnn(-c2ccc(F)cc2)c1N)C(F)(F)F)C(=O)c1ccc(F)cc1Cl (racemic)	76%	–
–	–	–	CCN(CC(O)(CNC(=O)c1cnn(-c2ccc(F)cc2)c1N)C(F)(F)F)C(=O)c1ccccc1Cl (stereo in doubt; 13e) [listing 1 of 2 here]	–	IC50 (Cytochrome P450 2D6): 34000 nM; IC50 (Cytochrome P450 2C9): 10000 nM; IC50 (Cytochrome P450 1A2): 100000 nM; IC50 (Cytochrome P450 3A4): 4000 nM; IC50 (Cytochrome P450 2C19): 20000 nM
15.8 nM	50.1 nM	20 nM	Nc1c(C(=O)NCC(O)(CN(CCO)C(=O)c2c(F)cccc2F)C(F)(F)F)cnn1-c1ccc(F)cc1 (stereo not given)	94%	Vd [4]: 0.9 L/kg; IC50 (Cytochrome P450 2D6): 100000 nM; Activity (Albumin): 81%; bioavailability [5]: 44%; IC50 (Cytochrome P450 2C9): 13000 nM; IC50 (Cytochrome P450 1A2): 100000 nM; fraction unbound [6]: 0.32; clearance [7]: 8 mL/min/kg; IC50 (Cytochrome P450 3A4): 76000 nM; IC50 (Cytochrome P450 2C19): 40000 nM
–	–	–	CCN(CC(O)(CNC(=O)c1cnn(-c2ccc(F)cc2)c1N)C(F)(F)F)C(=O)c1ccccc1S(C)(=O)=O (stereo not given) [listing 1 of 2 here]	99%	–
–	–	–	CCN(CC(O)(CNC(=O)c1cnn(-c2ccc(F)cc2)c1N)C(F)(F)F)C(=O)c1ccccc1Cl (racemic)	–	Vd [4]: 4 L/kg; bioavailability [5]: 25%; clearance [7]: 32 mL/min/kg
12.6 nM	25.1 nM	–	CCN(CC(O)(CNC(=O)c1cnn(-c2ccc(F)cc2)c1N)C(F)(F)F)C(=O)c1ccccc1 (stereo in doubt; 13c) [listing 1 of 2 here]	–	pIC50 [3]: 8
15.8 nM	25.1 nM	15.8 nM	CCCN(CC(O)(CNC(=O)c1cnn(-c2ccc(F)cc2)c1N)C(F)(F)F)C(=O)c1c(F)cccc1F (racemic)	96%	Vd [4]: 5.3 L/kg; bioavailability [5]: 16%; clearance [7]: 36 mL/min/kg
–	–	–	CCN(CC(O)(CNC(=O)c1cnn(-c2ccc(F)cc2)c1N)C(F)(F)F)C(=O)c1ncccc1Cl (stereo not given) [listing 1 of 2 here]	99%	–
126 nM	> 6310 nM	–	CCN(CC(O)(CNC(=O)c1cnn(-c2ccc(F)cc2)c1N)C(F)(F)F)C(=O)c1ccccc1 (stereo in doubt; 13b)	–	pIC50 [3]: < 5
15.8 nM	251 nM	31.6 nM	CCN(CC(O)(CNC(=O)c1cnn(-c2ccc(F)cc2)c1N)C(F)(F)F)C(=O)c1cccc(Cl)c1 (racemic)	96%	–
79.4 nM	251 nM	50.1 nM	CN(CC(O)(CNC(=O)c1cnn(-c2ccc(F)cc2)c1N)C(F)(F)F)C(=O)c1c(F)cccc1F (racemic)	95%	IC50 (Cytochrome P450 2D6): 36000 nM; IC50 (Cytochrome P450 2C9): 10000 nM; IC50 (Cytochrome P450 1A2): 100000 nM; IC50 (Cytochrome P450 3A4): 100000 nM; IC50 (Cytochrome P450 2C19): 49000 nM
7.94 nM	50.1 nM	20 nM	CCN(CC(O)(CNC(=O)c1cnn(-c2ccc(F)cc2)c1N)C(F)(F)F)C(=O)c1cccc(F)c1Cl (racemic)	92%	–
50.1 nM	25.1 nM	10 nM	CCN(CC(O)(CNC(=O)c1cnn(-c2ccc(F)cc2)c1N)C(F)(F)F)C(=O)c1c(F)cccc1S(C)(=O)=O (racemic)	103%	Vd [4]: 2.6 L/kg; bioavailability [5]: 62%; clearance [7]: 9 mL/min/kg
–	–	10 nM	CCN(CC(O)(CNC(=O)c1cnn(-c2ccc(F)cc2)c1N)C(F)(F)F)C(=O)c1ncccc1Cl (stereo not given) [listing 2 of 2 here]	–	IC50 (Cytochrome P450 2D6): 100000 nM; Activity (Albumin): 83%; IC50 (Cytochrome P450 2C9): 14000 nM; IC50 (Cytochrome P450 1A2): 100000 nM; fraction unbound [6]: 0.15; IC50 (Cytochrome P450 3A4): 4000 nM; IC50 (Cytochrome P450 2C19): 100000 nM
–	–	–	Nc1c(C(=O)NCC(O)(CN(CCO)C(=O)c2c(Cl)cccc2Cl)C(F)(F)F)cnn1-c1ccc(F)cc1 (stereo not given)	–	IC50 (Cytochrome P450 2D6): 54000 nM; Activity (Albumin): 89%; IC50 (Cytochrome P450 2C9): 3000 nM; IC50 (Cytochrome P450 1A2): 100000 nM; fraction unbound [6]: 0.07; IC50 (Cytochrome P450 3A4): 100000 nM; IC50 (Cytochrome P450 2C19): 20000 nM
–	–	10 nM	C[C@]12C=CC(=O)C=C1CC[C@@H]1[C@@H]2[C@@H](O)C[C@@]2(C)[C@H]1CC[C@]2(O)C(=O)CO [PREDNISOLONE]	100%	–
50.1 nM	50.1 nM	–	CCN(CC(O)(CNC(=O)c1cnn(-c2ccc(F)cc2)c1N)C(F)(F)F)C(=O)c1ccccc1 (racemic) [listing 2 of 2 here]	–	Vd [4]: 2.5 L/kg; bioavailability [5]: 12%; pIC50 [3]: 7.3; clearance [7]: 21 mL/min/kg
398 nM	> 6310 nM	316 nM	Nc1c(C(=O)NCC(O)(CNC(=O)c2c(F)cccc2F)C(F)(F)F)cnn1-c1ccc(F)cc1 (racemic)	80%	–
316 nM	> 6310 nM	> 10000 nM	CCN(CC(O)(CNC(=O)c1cnn(-c2ccc(F)cc2)c1N)C(F)(F)F)C(=O)c1ccc(Cl)cc1 (racemic)	–	–
–	–	–	CCN(CC(O)(CNC(=O)c1cnn(-c2ccc(F)cc2)c1N)C(F)(F)F)C(=O)c1ccccc1Cl (stereo in doubt; 13d) [listing 2 of 2 here]	–	IC50 (Cytochrome P450 2D6): 27000 nM; IC50 (Cytochrome P450 2C9): 4000 nM; IC50 (Cytochrome P450 1A2): 100000 nM; IC50 (Cytochrome P450 3A4): 2000 nM; IC50 (Cytochrome P450 2C19): 8000 nM
–	–	–	CCN(CC(O)(CNC(=O)c1cnn(-c2ccc(F)cc2)c1N)C(F)(F)F)C(=O)c1ccccc1Cl (stereo in doubt; 13e) [listing 2 of 2 here]	75%	–
–	–	–	CCN(CC(O)(CNC(=O)c1cnn(-c2ccc(F)cc2)c1N)C(F)(F)F)C(=O)c1ccccc1S(C)(=O)=O (racemic)	–	Vd [4]: 3.6 L/kg; bioavailability [5]: 77%; clearance [7]: 17 mL/min/kg
–	–	–	CCN(CC(O)(CNC(=O)c1cnn(-c2ccc(F)cc2)c1N)C(F)(F)F)C(=O)c1ccccc1 (stereo in doubt; 13c) [listing 2 of 2 here]	94%	–
–	–	–	CCN(CC(O)(CNC(=O)c1cnn(-c2ccc(F)cc2)c1N)C(F)(F)F)C(=O)c1ncccc1Cl (racemic)	–	Vd [4]: 2.8 L/kg; bioavailability [5]: 48%; clearance [7]: 23 mL/min/kg
12.6 nM	20 nM	12.6 nM	CCN(CC(O)(CNC(=O)c1cnn(-c2ccc(F)cc2)c1N)C(F)(F)F)C(=O)c1ccccc1F (stereo not given)	98%	–
6.31 nM	50.1 nM	25.1 nM	CCN(CC(O)(CNC(=O)c1cnn(-c2ccc(F)cc2)c1N)C(F)(F)F)C(=O)c1c(Cl)cc(Cl)cc1Cl (racemic)	100%	–
63.1 nM	158 nM	20 nM	CCN(CC(O)(CNC(=O)c1cnn(-c2ccc(F)cc2)c1N)C(F)(F)F)C(=O)c1ccccc1S(C)(=O)=O (stereo not given) [listing 2 of 2 here]	–	IC50 (Cytochrome P450 2D6): 96000 nM; Activity (Albumin): 81%; IC50 (Cytochrome P450 2C9): 23000 nM; IC50 (Cytochrome P450 1A2): > 40000 nM; IC50 (Cytochrome P450 2C19): 87000 nM

Structure (SMILES)	IC50 (Glucocorticoid receptor [1])	EC50 (Glucocorticoid receptor [2])	IC50 [3]	Activity (A549)	also measured
CCN(CC(O)(CNC(=O)c1cnn(-c2ccc(F)cc2)c1N)C(F)(F)F)C(=O)c1cccnc1Cl (racemic)	39.8 nM	794 nM	251 nM	75%	–
CCN(CC(O)(CNC(=O)c1cnn(-c2ccc(F)cc2)c1N)C(F)(F)F)C(=O)c1c(Cl)cccc1Cl (stereo not given)	3.16 nM	2 nM	0.501 nM	101%	IC50 (Cytochrome P450 2D6): 89000 nM; Activity (Albumin): 95%; IC50 (Cytochrome P450 2C9): 800 nM; IC50 (Cytochrome P450 1A2): 100000 nM; fraction unbound [6]: 0.01; IC50 (Cytochrome P450 3A4): 700 nM; IC50 (Cytochrome P450 2C19): 7000 nM
CCN(CC(O)(CNC(=O)c1cnn(-c2ccc(F)cc2)c1N)C(F)(F)F)C(=O)c1ccc2[nH]ccc2c1 (stereo not given)	6.31 nM	3.16 nM	1 nM	100%	–
